Where “and” joins values, the source holds several entries; their conditions need not be identical. Equal entries are not always repeated.
Target: T1, Mucosal addressin cell adhesion molecule 1/Integrin alpha-4/beta-7 (Homo sapiens, UniProt P13612+P26010+Q13477)
T1 sequence (P13612 whole entry): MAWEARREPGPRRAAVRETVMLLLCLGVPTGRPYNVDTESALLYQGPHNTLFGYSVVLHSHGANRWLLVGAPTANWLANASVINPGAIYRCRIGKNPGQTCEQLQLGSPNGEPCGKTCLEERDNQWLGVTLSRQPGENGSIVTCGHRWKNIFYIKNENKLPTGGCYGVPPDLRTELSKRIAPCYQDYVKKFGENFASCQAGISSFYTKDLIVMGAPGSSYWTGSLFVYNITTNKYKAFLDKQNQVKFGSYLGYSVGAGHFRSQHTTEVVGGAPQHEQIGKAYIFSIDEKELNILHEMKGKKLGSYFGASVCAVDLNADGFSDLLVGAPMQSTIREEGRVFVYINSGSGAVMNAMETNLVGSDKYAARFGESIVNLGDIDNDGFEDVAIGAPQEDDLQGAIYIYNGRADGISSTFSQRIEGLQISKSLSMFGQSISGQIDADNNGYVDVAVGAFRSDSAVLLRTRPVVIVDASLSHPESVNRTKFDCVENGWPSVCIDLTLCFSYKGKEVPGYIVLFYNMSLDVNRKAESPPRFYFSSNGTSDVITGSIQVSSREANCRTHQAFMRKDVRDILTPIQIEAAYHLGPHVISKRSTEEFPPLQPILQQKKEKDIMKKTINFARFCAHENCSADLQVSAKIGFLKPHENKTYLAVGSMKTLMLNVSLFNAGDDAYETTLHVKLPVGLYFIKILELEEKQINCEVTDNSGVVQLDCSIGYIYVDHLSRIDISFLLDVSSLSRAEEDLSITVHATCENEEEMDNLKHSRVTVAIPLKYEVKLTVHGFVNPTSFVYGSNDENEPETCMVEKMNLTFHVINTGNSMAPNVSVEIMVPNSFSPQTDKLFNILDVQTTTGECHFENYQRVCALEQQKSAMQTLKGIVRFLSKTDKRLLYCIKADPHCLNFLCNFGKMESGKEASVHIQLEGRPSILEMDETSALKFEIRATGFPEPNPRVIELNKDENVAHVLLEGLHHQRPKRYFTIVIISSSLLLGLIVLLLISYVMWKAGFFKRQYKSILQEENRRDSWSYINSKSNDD
T1 sequence (P26010 whole entry): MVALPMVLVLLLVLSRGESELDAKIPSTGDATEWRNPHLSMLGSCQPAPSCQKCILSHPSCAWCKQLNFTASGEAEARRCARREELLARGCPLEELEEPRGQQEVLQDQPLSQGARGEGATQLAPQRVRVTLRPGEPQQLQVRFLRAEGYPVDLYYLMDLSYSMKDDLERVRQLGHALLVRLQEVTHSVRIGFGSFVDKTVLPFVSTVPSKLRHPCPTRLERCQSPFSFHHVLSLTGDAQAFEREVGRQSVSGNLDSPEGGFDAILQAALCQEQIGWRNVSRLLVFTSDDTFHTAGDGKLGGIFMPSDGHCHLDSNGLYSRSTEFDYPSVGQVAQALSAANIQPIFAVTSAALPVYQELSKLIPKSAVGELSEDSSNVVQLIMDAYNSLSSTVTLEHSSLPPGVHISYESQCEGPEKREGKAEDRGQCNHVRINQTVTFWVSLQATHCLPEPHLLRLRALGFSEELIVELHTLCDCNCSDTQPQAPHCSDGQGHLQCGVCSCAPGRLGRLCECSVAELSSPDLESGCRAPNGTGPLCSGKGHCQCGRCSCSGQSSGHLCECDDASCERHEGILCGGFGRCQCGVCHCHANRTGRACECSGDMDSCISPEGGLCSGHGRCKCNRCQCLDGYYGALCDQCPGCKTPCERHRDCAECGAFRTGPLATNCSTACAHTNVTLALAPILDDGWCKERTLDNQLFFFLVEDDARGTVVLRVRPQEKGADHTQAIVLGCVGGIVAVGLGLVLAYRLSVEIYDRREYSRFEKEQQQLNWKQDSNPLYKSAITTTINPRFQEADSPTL
T1 sequence (Q13477 whole entry): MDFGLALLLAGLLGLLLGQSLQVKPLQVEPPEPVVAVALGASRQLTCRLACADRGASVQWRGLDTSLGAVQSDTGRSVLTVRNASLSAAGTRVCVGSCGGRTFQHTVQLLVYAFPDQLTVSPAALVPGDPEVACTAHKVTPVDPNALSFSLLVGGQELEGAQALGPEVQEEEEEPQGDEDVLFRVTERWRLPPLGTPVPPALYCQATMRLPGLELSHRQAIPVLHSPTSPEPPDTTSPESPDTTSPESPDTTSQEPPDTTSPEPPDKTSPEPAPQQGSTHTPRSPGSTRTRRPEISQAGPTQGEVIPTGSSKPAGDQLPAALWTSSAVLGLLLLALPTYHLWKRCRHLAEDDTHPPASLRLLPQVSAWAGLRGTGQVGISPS
Test: BINDING INHIBITION ACTIVITY EVALUATION TEST
Protocol: Coat the 96-well microplate (Costar) with 50 μL of recombinant human MAdCAM-1 (R&D Systems) solution per well, and incubate overnight (12-18 hours) at 4° C. Wash three times with 150 μL of TBS buffer per well. Block plate with 150 μL per well with blocking buffer for 1 h at 37° C. Wash three times with 150 μL of TBS buffer per well. Dilute the recombinant human integrin α4β7 (R&D Systems) with TBS buffer containing 0.1% bovine serum albumin (BSA), then add to the 96 well plate with 50 μL per well. Add 1 μL of test compound or DMSO, cover, incubate at room temperature for 2 h, wash three times with 150 μL of TBS buffer per well. Dilute the anti-β7 antibody (R&D Systems) with 0.1% BSA TBS buffer, then add to the 96 well plate with 50 μL per well, cover, incubate at room temperature for 1 h, wash three times with 150 μL of TBS buffer per well. Add 50 μL of streptavidin-HRP (R&D Systems) per well, incubate at room temperature for 20 min, wash three times with 150 μL of TBS buffer per well. Add 50 μL of TMB substrate solution (Sigma) per well, incubate at room temperature for 5-30 min, and add 25 μL of stop solution per well to stop the reaction. Finally, measure absorbance at 450 nm with microplate reader (SpectraMax 340PC. Molecular Devices). Repeat the test to find the binding rate […] at each concentration when the absorbance of the well without the test substance is used as 100%, and calculate the concentration IC50 that causes 50% binding inhibition.

Row | SMILES | IC50
1 | COC(=O)[C@H](Cc1ccc(N2C(=O)C3(CC3)c3cc(F)c(F)cc32)cc1)NC(c1ccccc1)(c1ccccc1)c1ccccc1 [US20240150287, Example 1] | 14.3 nM
2 | COC(=O)[C@H](Cc1ccc(N2C(=O)C3(CC3)c3ccc(F)cc32)cc1)NC(c1ccccc1)(c1ccccc1)c1ccccc1 [US20240150287, Example 4] | 2.54 nM and 8.02 nM
3 | COC(=O)[C@H](Cc1ccc(N2C(=O)C3(CC3)c3cccc(F)c32)cc1)NC(c1ccccc1)(c1ccccc1)c1ccccc1 [US20240150287, Example 5] | 6.21 nM
4 | COC(=O)[C@H](Cc1ccc(N2C(=O)C3(CC3)c3ccccc32)cc1)NC(c1ccccc1)(c1ccccc1)c1ccccc1 [US20240150287, Example 6] | 5.81 nM
5 | COC(=O)[C@H](Cc1ccc(N2C(=O)C3(CCOCC3)c3cccc(Cl)c32)cc1)NC(c1ccccc1)(c1ccccc1)c1ccccc1 [US20240150287, Example 7] | 16.1 nM
6 | COC(=O)[C@H](Cc1ccc(N2C(=O)C3(CC3)c3cc(F)c(Cl)cc32)cc1)NC(c1ccccc1)(c1ccccc1)c1ccccc1 [US20240150287, Example 8] | 17.6 nM
7 | COC(=O)[C@H](Cc1ccc(N2C(=O)C3(CC3)c3cc(F)ccc32)cc1)NC(c1ccccc1)(c1ccccc1)c1ccccc1 [US20240150287, Example 9] | 95.5 nM
8 | COC(=O)[C@H](Cc1ccc(N2C(=O)C(C)(C)c3cccc(Cl)c32)cc1)NC(c1ccccc1)(c1ccccc1)c1ccccc1 [US20240150287, Example 10] | 38.8 nM
9 | COC(=O)[C@H](Cc1ccc(N2C(=O)C3(CC3)c3ccc(F)c(F)c32)cc1)NC(c1ccccc1)(c1ccccc1)c1ccccc1 [US20240150287, Example 15] | 5.62 nM
10 | COC(=O)[C@H](Cc1ccc(N2C(=O)C3(CC3)c3cccc(Cl)c32)cc1)NC(=O)c1c(Cl)cc(Cl)cc1Cl [US20240150287, Example 17] | 64.2 nM
11 | COC(=O)[C@H](Cc1ccc(N2C(=O)C3(CC3)c3cccc(Cl)c32)cc1)NC(=O)c1c(Cl)cc(N2CCOCC2)cc1Cl [US20240150287, Example 19] | 11.4 nM
12 | COC(=O)[C@H](Cc1ccc(N2C(=O)C3(CC3)c3cccc(Cl)c32)cc1)NC(=O)c1c(Cl)cc(N2CCC(N3CCOCC3)CC2)cc1Cl [US20240150287, Example 21] | 23.8 nM
13 | COC(=O)[C@H](Cc1ccc(-n2c(=O)n(C3CC3)c3cc(Cl)ccc32)cc1)NC(c1ccccc1)(c1ccccc1)c1ccccc1 [US20240150287, Example 23] | 143 nM
14 | COC(=O)[C@H](Cc1ccc(-n2c(=O)n(C3CC3)c3ccc(Cl)cc32)cc1)NC(c1ccccc1)(c1ccccc1)c1ccccc1 [US20240150287, Example 24] | 5.67 nM
15 | COC(=O)[C@H](Cc1ccc(-n2c(=O)n(C3CC3)c3cccc(Cl)c32)cc1)NC(c1ccccc1)(c1ccccc1)c1ccccc1 [US20240150287, Example 25] | 7.5 nM
16 | COC(=O)[C@H](Cc1ccc(-n2c(=S)n(C)c3cccc(Cl)c32)cc1)NC(c1ccccc1)(c1ccccc1)c1ccccc1 [US20240150287, Example 26] | 160 nM
17 | COC(=O)[C@H](Cc1ccc(-n2c(=O)n(C3CC3)c3cccc(F)c32)cc1)NC(c1ccccc1)(c1ccccc1)c1ccccc1 [US20240150287, Example 27] | 8.81 nM
18 | COC(=O)[C@H](Cc1ccc(-n2c(=O)n(C3CCN(C)CC3)c3cccc(Cl)c32)cc1)NC(c1ccccc1)(c1ccccc1)c1ccccc1 [US20240150287, Example 29] | 18.1 nM
19 | COC(=O)[C@H](Cc1ccc(-n2c(=O)n(C)c3c(F)c(F)ccc32)cc1)NC(c1ccccc1)(c1ccccc1)c1ccccc1 [US20240150287, Example 34] | 10.5 nM

The remaining compounds from weak to strong by IC50, led by results:

Row | IC50 | SMILES
20 | 5.48 nM | COC(=O)[C@H](Cc1ccc(N2C(=O)C3(CC3)c3cccc(OC)c32)cc1)NC(c1ccccc1)(c1ccccc1)c1ccccc1 [US20240150287, Example 3]
21 | 5.34 nM | COC(=O)[C@H](Cc1ccc(-n2c(=O)n(C)c3cc(F)cc(F)c32)cc1)NC(c1ccccc1)(c1ccccc1)c1ccccc1 [US20240150287, Example 31]
22 | 4.19 nM | COC(=O)[C@H](Cc1ccc(-n2c(=O)n(C)c3cc(Cl)c(Cl)cc32)cc1)NC(c1ccccc1)(c1ccccc1)c1ccccc1 [US20240150287, Example 32]
23 | 4.15 nM | COC(=O)[C@H](Cc1ccc(N2C(=O)C3(CC3)c3cc(N(C)C)ccc32)cc1)NC(c1ccccc1)(c1ccccc1)c1ccccc1 [US20240150287, Example 12]
24 | 4.15 nM | COC(=O)[C@H](Cc1ccc(N2C(=O)C3(CC3)c3cccc(Cl)c32)cc1)NC(=O)c1c(Cl)cc(N2CC3CC2CO3)cc1Cl (stereo partly specified) [US20240150287, Example 20]
25 | 3.05 nM | COC(=O)[C@H](Cc1ccc(N2C(=O)C3(CC3)c3cc(F)c(N(C)C)cc32)cc1)NC(c1ccccc1)(c1ccccc1)c1ccccc1 [US20240150287, Example 11]
26 | 2.7 nM | COC(=O)[C@H](Cc1ccc(-n2c(=O)n(C)c3ccc(F)c(F)c32)cc1)NC(c1ccccc1)(c1ccccc1)c1ccccc1 [US20240150287, Example 33]
27 | 2.57 nM | COC(=O)[C@H](Cc1ccc(N2C(=O)C3(CC3)c3cccc(Cl)c32)cc1)NC(c1ccccc1)(c1ccccc1)c1ccccc1 [US20240150287, Example 2]
28 | 1.83 nM | COC(=O)[C@H](Cc1ccc(-n2c(=O)n(C)c3cccc(F)c32)cc1)NC(c1ccccc1)(c1ccccc1)c1ccccc1 [US20240150287, Example 30]
29 | 1.19 nM | COC(=O)[C@H](Cc1ccc(-n2c(=O)n(C)c3cccc(Cl)c32)cc1)NC(c1ccccc1)(c1ccccc1)c1ccccc1 [US20240150287, Example 22]
30 | 0.75 nM | COC(=O)[C@H](Cc1ccc(N2C(=O)C3(CC3)c3cccnc32)cc1)NC(c1ccccc1)(c1ccccc1)c1ccccc1 [US20240150287, Example 16]
31 | 0.45 nM | COC(=O)[C@H](Cc1ccc(-n2c(=O)n(C)c3cccc(OC)c32)cc1)NC(c1ccccc1)(c1ccccc1)c1ccccc1 [US20240150287, Example 35]

— BindingDB's records for patent US20240150287 (Hangzhou Apeloa Medicine Research Institute Co., 2024)
